The test system of experiment [1] is Saccharomyces cerevisiae. Briefly: Cell aggregates after incubation of compound with Saccharomyces cerevisiae strains as measure of chitinase inhibitory activity. It counts as functional.
The subject of experiment [2] is Saccharomyces cerevisiae. The experiment is described as follows: Cell aggregates after mild sonication of compound with Saccharomyces cerevisiae strains as measure of chitinase inhibitory activity. The class given is functional.

As for `O=C1N[C@@H](Cc2cnc[nH]2)C(=O)N2CCC[C@@H]12`, the Cell aggregates in experiment [1] is 90; in experiment [2] it was 32.7.
The like results for `O=C1N[C@@H](Cc2ccc(O)cc2)C(=O)N2CCC[C@@H]12` were, in that order, 77.5 and 33.9.
On the same counts, the results for `O=C1NCC(=O)N2CCC[C@@H]12` [CYCLO(PROLYLGLYCYL)] are 75.7 and 33.2.

The record behind these values is ChEMBL document CHEMBL1137230, “Structure-based exploration of cyclic dipeptide chitinase inhibitors” (2004).
